In experiment [1] the target is T1, Tyrosyl-DNA phosphodiesterase 1 (Homo sapiens, UniProt Q9NUW8). Kind of experiment: Inhibition of Tdp1 (unknown origin) up to 40 uM using 5'-(6-TAMN-AGGATCTAAAAGACTT-BHQ-)3' as substrate pretreated for 30 mins followed by substrate addition by fluorescence assay.
In experiment [2] the target is T1, Tyrosyl-DNA phosphodiesterase 1. The experiment is described as follows: Inhibition of Tdp1 (unknown origin) using 5'-(6-TAMN-AGGATCTAAAAGACTT-BHQ-)3' as substrate pretreated for 30 mins followed by substrate addition by fluorescence assay.

Broadly, the IC50 is the midpoint of a concentration-inhibition curve.

T1 sequence (Q9NUW8 whole entry): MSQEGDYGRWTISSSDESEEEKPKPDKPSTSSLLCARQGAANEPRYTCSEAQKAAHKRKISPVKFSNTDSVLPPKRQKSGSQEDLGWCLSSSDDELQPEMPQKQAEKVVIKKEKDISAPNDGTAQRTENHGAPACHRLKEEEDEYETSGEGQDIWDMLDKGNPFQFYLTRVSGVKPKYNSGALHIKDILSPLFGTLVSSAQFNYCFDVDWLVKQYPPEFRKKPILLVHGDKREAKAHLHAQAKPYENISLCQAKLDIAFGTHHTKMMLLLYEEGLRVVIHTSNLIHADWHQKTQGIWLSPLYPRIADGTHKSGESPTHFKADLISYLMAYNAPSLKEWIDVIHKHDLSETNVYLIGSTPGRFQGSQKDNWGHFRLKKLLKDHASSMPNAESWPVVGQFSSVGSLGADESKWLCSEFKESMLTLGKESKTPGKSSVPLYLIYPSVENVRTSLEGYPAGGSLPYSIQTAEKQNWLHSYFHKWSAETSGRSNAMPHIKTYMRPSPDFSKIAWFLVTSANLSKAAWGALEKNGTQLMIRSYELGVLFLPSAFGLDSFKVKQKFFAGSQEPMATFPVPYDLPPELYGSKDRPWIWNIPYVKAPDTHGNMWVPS

In the case of `O=c1cc(O)cc(/C=C/c2ccc(O)cc2)o1`, in experiment [1], the inhibition result was “Dose-dependent effect”. As for `O=c1cc(O)cc(/C=C/c2ccc(O)c(O)c2)o1`, the inhibition result in experiment [1] is “Dose-dependent effect”.

For the compound `O=c1cc(O)cc([C@H]2[C@H](c3ccc(O)cc3)[C@H](c3cc(O)cc(=O)o3)[C@H]2c2ccc(O)cc2)o1`, the IC50 in experiment [2] worked out at 1000 nM.

The values are drawn from ChEMBL document CHEMBL4052813, “Achyrodimer F, a tyrosyl-DNA phosphodiesterase I inhibitor from an Australian fungus of the family Cortinariaceae” (Bioorg Med Chem Lett, 2017).
